Measured values taken from patent US20090111105A1 (priority 2007, published 2009).

Experiments:
male sexual behaviour = details: in comparison with testosterone; Arteaga-Silva et al. 2005; cited from earlier work
prostate = details: Arteaga-Silva et al. 2005; cited from earlier work
androgen receptor (AR) = biological target: T1, androgen receptor (AR) (Homo sapiens, UniProt P10275); details: SH-SY5Y cells, 1f-pGI3 + pSG5AR, FIG. 8 and FIG. 10
T1 sequence (P10275 1-920): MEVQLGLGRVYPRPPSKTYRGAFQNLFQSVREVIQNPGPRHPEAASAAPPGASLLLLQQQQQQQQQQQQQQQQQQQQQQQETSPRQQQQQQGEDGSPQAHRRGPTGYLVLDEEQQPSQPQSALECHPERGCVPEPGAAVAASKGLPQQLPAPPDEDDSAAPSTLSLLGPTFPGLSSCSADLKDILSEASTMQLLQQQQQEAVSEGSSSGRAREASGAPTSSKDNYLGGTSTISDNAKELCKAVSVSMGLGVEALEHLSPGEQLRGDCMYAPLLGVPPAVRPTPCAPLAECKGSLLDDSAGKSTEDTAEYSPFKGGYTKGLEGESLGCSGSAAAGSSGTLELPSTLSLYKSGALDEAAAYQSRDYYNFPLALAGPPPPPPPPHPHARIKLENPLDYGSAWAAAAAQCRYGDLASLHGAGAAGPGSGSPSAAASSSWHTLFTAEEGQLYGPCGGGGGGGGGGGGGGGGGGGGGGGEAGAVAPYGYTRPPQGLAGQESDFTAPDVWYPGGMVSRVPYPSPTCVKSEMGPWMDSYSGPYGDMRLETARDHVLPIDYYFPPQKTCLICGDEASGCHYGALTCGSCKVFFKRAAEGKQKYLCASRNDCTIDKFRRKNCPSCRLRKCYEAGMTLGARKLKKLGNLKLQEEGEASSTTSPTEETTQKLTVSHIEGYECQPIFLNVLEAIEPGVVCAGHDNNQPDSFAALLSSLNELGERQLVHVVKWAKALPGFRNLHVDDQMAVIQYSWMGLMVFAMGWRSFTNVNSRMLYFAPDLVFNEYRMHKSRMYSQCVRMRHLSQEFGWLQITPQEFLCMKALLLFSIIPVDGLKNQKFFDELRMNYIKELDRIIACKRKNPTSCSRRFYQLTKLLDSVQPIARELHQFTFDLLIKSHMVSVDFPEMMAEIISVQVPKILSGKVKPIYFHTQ

Compound | action on male sexual behaviour (male sexual behaviour) | androgenic action on the prostate (prostate) | induction of reporter gene expression on the 1f-promoter (androgen receptor (AR))
C[C@]12CCC(=O)C[C@@H]1CC[C@@H]1[C@@H]2CC[C@]2(C)[C@@H](O)CC[C@@H]12 [DHT, dihydrotestosterone] | considerably less action | very strong androgen | –
CCC(=O)O[C@H]1CC[C@H]2[C@@H]3CCC4=CC(=O)CC[C@]4(C)[C@H]3CC[C@]12C [testosterone propionate] | – | – | very potent stimulation
